# Measurements from patent US20240207427A1, “SELECTIVE DRUG RELEASE FROM INTERNALIZED CONJUGATES OF BIOLOGICALLY ACTIVE COMPOUNDS” (priority 2021, published 2024).
# Where two headings read alike, the source gives them in different places.
# Legend:
# Type in all cases: cell-based
# [1] = system: breast cancer cells (MDA-MB-231); experiment: In vitro potency (CellTiter-Glo, 96 h), MDA-MB-231; details: Homo sapiens, MDA-MB-231, 96 h, CPT free drugs, breast cancer cells MDA-MB-231, 96 h, CellTiter-Glo
# Experimental: (§1) In vitro potency was assessed on multiple cancer cell lines. All cell lines were authenticated by STR profiling at IDEXX Bioresearch and cultured for no more than 2 months after resuscitation. Cells cultured in log-phase growth were seeded for 24 hours in 96-well plates containing […] RPMI 1640 supplemented with 20% FBS. Serial dilutions of antibody-drug conjugates in cell culture media were prepared at 4× working concentrations, and 50 μL of each dilution was added to the 96-well plates. Following addition of test articles, cells were incubated with test articles for 4 days at 37 0° C. After 96 hours, growth inhibition was assessed by CellTiterGlo® (Promega, Madison, WI) and luminescence was measured on a plate reader.
# (§2) In Table 7, IC50 values for ADCs are given in ng/mL. Cell viability was determined by CellTiter-Glo staining after 96 h exposure to ADC. ND=Not Determined. Ag2 is an antibody targeting a ubiquitous and readily internalizable antigen. The cancer cell lines tested are renal carcinoma cells (786-0), melanoma cells (A2058), pancreatic cancer cells (BxPC3), non-small-cell lung cancer cells (Calu1), anaplastic large cell lymphoma cells (DEL, DELBVR, Karpas299), Hodgkin's lymphoma cells (L540cy), (Ls174T), breast cancer cells (MDA-MB-231), acute myeloid leukemia cells (MOLM-13), and B-lymphocyte cancer cells (SU-DHL4).
# as §1, with “FBS.” for “FBS. Serial dilutions of antibody-drug conjugates in cell culture media were prepared at 4× working concentrations, and 50 μL of each dilution was added to the 96-well plates.”
# (§3) Cell viability was determined by CellTiter-Glo staining after 96 h exposure to the compound. ND=Not Determined. The cancer cell lines tested are renal carcinoma cells (786-0), melanoma cells (A2058), pancreatic cancer cells (BxPC3), non-small-cell lung cancer cells (Calu1), anaplastic large cell lymphoma cells (DEL, DELBVR, Karpas299), Hodgkin's lymphoma cells (L540cy), (Ls 174T), breast cancer cells (MDA-MB-231), acute myeloid leukemia cells (MOLM-13), B-lymphocyte cancer cells (SU-DHL4), multiple myeloma cells (MM.1R), (U266), and melanoma cells (SK-MEL-5).
# as §1, with “37°” for “37 0°”
# (§4) In the following Tables IC50 values for ADCs and CPT free drugs are given in ng/mL and nmol/L concentrations. Cell viability was determined by CellTiter-Glo staining after 96 h exposure to ADC or CPT free drug.
# (§5) Cell viability was determined by CellTiter-Glo staining after 96 h exposure to ADC. ND=Not Determined.
# [2] = system: B-lymphocyte cancer cells (SU-DHL4); experiment: In vitro potency (CellTiter-Glo, 96 h), SU-DHL-4; details: Homo sapiens, SU-DHL-4, 96 h, CPT free drugs, B-lymphocyte cancer cells SU-DHL4, 96 h, CellTiter-Glo
# Experimental: as §1, §2
# as §1, with “FBS.” for “FBS. Serial dilutions of antibody-drug conjugates in cell culture media were prepared at 4× working concentrations, and 50 μL of each dilution was added to the 96-well plates.”
# as §3
# as §1, with “37°” for “37 0°”
# as §4, §5
# [3] = system: anaplastic large cell lymphoma cells (Karpas299); experiment: In vitro potency (CellTiter-Glo, 96 h), Karpas299; details: Homo sapiens, KARPAS-299, 96 h, CPT free drugs, anaplastic large cell lymphoma cells Karpas299, 96 h, CellTiter-Glo
# Experimental: as §1, §2
# as §1, with “FBS.” for “FBS. Serial dilutions of antibody-drug conjugates in cell culture media were prepared at 4× working concentrations, and 50 μL of each dilution was added to the 96-well plates.”
# as §3
# as §1, with “37°” for “37 0°”
# as §4, §5
# Ls174T cells = experiment: In vitro potency (CellTiter-Glo, 96 h), Ls174T; details: Homo sapiens, CPT free drugs, Ls174T cells, 96 h, CellTiter-Glo
# Experimental: as §1, §2
# as §1, with “FBS.” for “FBS. Serial dilutions of antibody-drug conjugates in cell culture media were prepared at 4× working concentrations, and 50 μL of each dilution was added to the 96-well plates.”
# as §3
# as §1, with “37°” for “37 0°”
# as §4, §5
# [4] = system: acute myeloid leukemia cells (MOLM-13); experiment: In vitro potency (CellTiter-Glo, 96 h), MOLM-13; details: Homo sapiens, MOLM-13, 96 h, CPT free drugs, acute myeloid leukemia cells MOLM-13, 96 h, CellTiter-Glo
# Experimental: as §1, §2
# as §1, with “FBS.” for “FBS. Serial dilutions of antibody-drug conjugates in cell culture media were prepared at 4× working concentrations, and 50 μL of each dilution was added to the 96-well plates.”
# as §3
# as §1, with “37°” for “37 0°”
# as §4, §5
# [5] = system: renal carcinoma cells (786-O); experiment: In vitro potency (CellTiter-Glo, 96 h), 786-O; details: Homo sapiens, 786-0, 96 h, CPT free drugs, renal carcinoma cells 786-O, 96 h, CellTiter-Glo
# Experimental: as §1, §2
# as §1, with “FBS.” for “FBS. Serial dilutions of antibody-drug conjugates in cell culture media were prepared at 4× working concentrations, and 50 μL of each dilution was added to the 96-well plates.”
# as §3
# as §1, with “37°” for “37 0°”
# as §4, §5
# [6] = system: pancreatic cancer cells (BxPC3); experiment: In vitro potency (CellTiter-Glo, 96 h), BxPC3; details: Homo sapiens, BXPC-3, 96 h, CPT free drugs, pancreatic cancer cells BxPC3, 96 h, CellTiter-Glo
# Experimental: as §1, §2
# as §1, with “FBS.” for “FBS. Serial dilutions of antibody-drug conjugates in cell culture media were prepared at 4× working concentrations, and 50 μL of each dilution was added to the 96-well plates.”
# as §3
# as §1, with “37°” for “37 0°”
# as §4, §5
# [7] = system: anaplastic large cell lymphoma cells (DEL); experiment: In vitro potency (CellTiter-Glo, 96 h), DEL
# Experimental: as §1, §2
# as §1, with “FBS.” for “FBS. Serial dilutions of antibody-drug conjugates in cell culture media were prepared at 4× working concentrations, and 50 μL of each dilution was added to the 96-well plates.”
# as §3
# as §1, with “37°” for “37 0°”
# as §4, §5
# [8] = system: anaplastic large cell lymphoma cells (DELBVR); experiment: In vitro potency (CellTiter-Glo, 96 h), DELBVR
# Experimental: as §1, §2
# as §1, with “FBS.” for “FBS. Serial dilutions of antibody-drug conjugates in cell culture media were prepared at 4× working concentrations, and 50 μL of each dilution was added to the 96-well plates.”
# as §3
# as §1, with “37°” for “37 0°”
# as §4, §5
# [9] = system: Hodgkin's lymphoma cells (L540cy); experiment: In vitro potency (CellTiter-Glo, 96 h), L540cy
# Experimental: as §1, §2
# as §1, with “FBS.” for “FBS. Serial dilutions of antibody-drug conjugates in cell culture media were prepared at 4× working concentrations, and 50 μL of each dilution was added to the 96-well plates.”
# as §3
# as §1, with “37°” for “37 0°”
# as §4, §5
# [10] = read-out: MOLM-13 IC50, Table 28
# [11] = read-out: MDAMB231 IC50, Table 28
# [12] = read-out: SU-DHL-4 IC50, Table 28
# [13] = read-out: Karpas299 IC50, Table 28
# [14] = LS174T, read-out: Ls174T IC50, Table 28
# [15] = read-out: DEL IC50, Table 28, CPT free drugs, anaplastic large cell lymphoma cells DEL, CellTiter-Glo
# [16] = read-out: DELBVR IC50, Table 28, CPT free drugs, anaplastic large cell lymphoma cells DELBVR, CellTiter-Glo
# [17] = read-out: L540cy IC50, Table 28, CPT free drugs, Hodgkin's lymphoma cells L540cy, CellTiter-Glo
# [18] = read-out: MDAMB231 IC50, Table 29
# [19] = read-out: SU-DHL-4 IC50, Table 29
# [20] = read-out: Karpas299 IC50, Table 29
# [21] = LS174T, read-out: Ls174T IC50, Table 29
# [22] = read-out: MOLM-13 IC50, Table 29
# [23] = read-out: DEL IC50, Table 29, CPT free drugs, anaplastic large cell lymphoma cells DEL, CellTiter-Glo
# [24] = read-out: DELBVR IC50, Table 29, CPT free drugs, anaplastic large cell lymphoma cells DELBVR, CellTiter-Glo
# [25] = read-out: L540cy IC50, Table 29, CPT free drugs, Hodgkin's lymphoma cells L540cy, CellTiter-Glo
Compound,"IC50 [4, 10] [nM]","IC50 [1, 11] [nM]","IC50 [2, 12] [nM]","IC50 [3, 13] [nM]",IC50 (Ls174T cells; [14]) [nM],"IC50 ([5]; read-out: 786-O IC50, Table 28) [nM]","IC50 ([6]; read-out: BxPC3 IC50, Table 28) [nM]","IC50 [8, 16] [nM]","IC50 [9, 17] [nM]","IC50 [1, 18] [nM]","IC50 [2, 19] [nM]","IC50 [3, 20] [nM]",IC50 (Ls174T cells; [21]) [nM],"IC50 [4, 22] [nM]","IC50 ([5]; read-out: 786-O IC50, Table 29) [nM]","IC50 ([6]; read-out: BxPC3 IC50, Table 29) [nM]","IC50 [7, 23] [nM]","IC50 [8, 24] [nM]","IC50 [9, 25] [nM]",further results
CC[C@@]1(O)C(=O)OCc2c1cc1n(c2=O)Cc2c-1nc1cc3c(cc1c2CN)COC3 [Compound 2ak],129,–,–,–,–,–,–,–,–,–,–,–,–,–,–,–,–,–,–,"IC50 ([1]; Table 28, read-out: MDAMB231 IC50): 147 nM; IC50 ([2]; Table 28, read-out: SU-DHL-4 IC50): 11 nM; IC50 ([3]; Table 28, read-out: Karpas299 IC50): 40 nM; IC50 (Ls174T cells; Table 28, read-out: Ls174T IC50): 50 nM; IC50 ([5]; Table 28, read-out: 786-O IC50): 57 nM; IC50 ([6]; Table 28, read-out: BxPC3 IC50): 88 nM; IC50 ([7]; Table 28, CPT free drugs, anaplastic large cell lymphoma cells DEL, CellTiter-Glo, read-out: DEL IC50): 6 nM; IC50 ([8]; Table 28, CPT free drugs, anaplastic large cell lymphoma cells DELBVR, CellTiter-Glo, read-out: DELBVR IC50): 6 nM; IC50 ([9]; Table 28, CPT free drugs, Hodgkin's lymphoma cells L540cy, CellTiter-Glo, read-out: L540cy IC50): 22 nM"
C=C(C)c1c(C)c(F)cc2nc3c(c(CN)c12)Cn1c-3cc2c(c1=O)COC(=O)[C@]2(O)CC [Compound 2al],2,9,1,4,11,4,7,1,2,–,–,–,–,–,–,–,–,–,–,"IC50 [7, 15]: 1 nM"
"C=Cc1c(C)c(F)cc2nc3c(c(CN)c12)Cn1c-3cc2c(c1=O)COC(=O)[C@]2(O)CC [Compound 2am, (S)-11-(aminomethyl)-4-ethyl-8-fluoro-4-hydroxy-9-methyl-10-vinyl-1,12-dihydro-14H-pyrano[3′,4′:6,7]indolizino[1,2-b]quinoline-3,14(4H)-dione]",2,5,1,2,5,2,4,0.3,1,–,–,–,–,–,–,–,–,–,–,"IC50 [7, 15]: 0.3 nM"
CC[C@@]1(O)C(=O)OCc2c1cc1n(c2=O)Cc2c-1nc1cc3c(cc1c2CNC[C@H](O)CN1CCCCC1)OCO3 [Compound 7aa],–,–,–,–,–,–,–,–,–,228,19,63,188,69,131,66,17,19,51,–
CC[C@@]1(O)C(=O)OCc2c1cc1n(c2=O)Cc2c-1nc1cc3c(cc1c2CNCCCN1CCN(C)CC1)OCO3 [Compound 7h],–,–,–,–,–,–,–,–,–,67,21,57,40,93,44,43,5,6,23,–
CC[C@@]1(O)C(=O)OCc2c1cc1n(c2=O)Cc2c-1nc1cc3c(cc1c2CNC[C@H](O)CO)OCO3 [Compound 7n],–,–,–,–,–,–,–,–,–,96,21,57,39,137,66,47,5,6,23,–
CC[C@@]1(O)C(=O)OCc2c1cc1n(c2=O)Cc2c-1nc1cc3c(cc1c2CNC1CCN(C)CC1)OCO3 [Compound 7w],–,–,–,–,–,–,–,–,–,26,6,8,16,26,15,13,2,2,6,–
CC[C@@]1(O)C(=O)OCc2c1cc1n(c2=O)Cc2c-1nc1cc3c(cc1c2CNC[C@@H](O)CN1CCCCC1)OCO3 [Compound 7z],–,–,–,–,–,–,–,–,–,306,39,150,79,143,123,127,17,16,48,–
CC[C@@]1(O)C(=O)OCc2c1cc1n(c2=O)Cc2c-1nc1cc3c(cc1c2CNCCN1CCNCC1)OCO3 [Compound 8b],–,–,–,–,–,–,–,–,–,260,17,62,111,91,102,51,8,13,56,–
CC[C@@]1(O)C(=O)OCc2c1cc1n(c2=O)Cc2c-1nc1cc3c(cc1c2CNC(C)=O)OCO3 [Compound 12b],3,28,1,8,22,12,11,1,4,–,–,–,–,–,–,–,–,–,–,–
